# Laboratory results as given in US20240374555A1, “Mast Cell Stabilizer with Sodium Cromoglycate-based Inhibitor for Preventing Lipedema Progression” (MAGI'S LAB SRL, priority 2023, published 2024).
# System: histamine and its metabolites in the tissue of people with lipedema
# Experiment: Metabolomic analysis (IM-MS) of subcutaneous adipose tissue biopsies from lipedema patients treated with sodium cromoglycate
# Format: in vivo, human
# Details: for Histamine levels in tissue samples after treatment (in words): three lipedema patients treated for two weeks
# Protocol: This experiment study involved patients who were diagnosed with lipedema. The study began with collection of a sample from each subject in the study, and three patients received a treatment regimen consisting of twice daily oral doses of sodium cromoglycate (500 mg) for 15 days, as well as a topical cream containing 4% sodium cromoglycate. The effects of this treatment on the patients' symptoms and mast cell activation were evaluated as part of the study.
# Thereafter, metabolomic analysis was performed by mass spectrometry. Specifically, the ion-mobility mass spectrometry (IM-MS) technique combined ion mobility with mass spectrometry, allowing different compounds to be characterized together with a specific m/z ratio. SACI-CIMS was used as ionization technique. Data were acquired through the SANIST platform. Values under the Limit of Quantification (LoQ=1 pg/mg) were considered as 0 pg/mg.
# Thereafter, a target histological and metabolomic examination was performed. Specifically, biopsies of subcutaneous adipose tissue were taken from a total of six patients with lipedema and four healthy individuals.
# [1] = lipedema tissue of patients treated with sodium cromoglycate (n = 3), 500 mg oral twice daily for 15 days plus 4% topical cream
# [2] = lipedema tissue of patients treated with sodium cromoglycate (n = 3), 500 mg oral twice daily for 15 days plus 4% topical cream, values under LoQ (1 pg/mg) given as 0
smiles,measurement,setting,value
"O=C(O)c1cc(=O)c2c(OCC(O)COc3cccc4oc(C(=O)O)cc(=O)c34)cccc2o1 [sodium cromoglycate, Sodium cromoglycate]",1-Methylhystamine tissue level,[1],13.67 ± 10.02 pg/mg
same,Histidine tissue level,[1],20.67 ± 17.00 pg/mg
same,Histamine tissue level,[2],0 pg/mg
same,Imidazole Acetaldehyde tissue level,[2],0 pg/mg
same,Histamine levels in tissue samples after treatment (in words),,effectively reduce histamine levels
same,Histamine levels in tissue samples after treatment (in words),listed as disodium cromoglycate,normal levels of histamine
